Test systems include HCT-15; PC-3; M14; U-251; OVCAR-5; SNB-75; SK-MEL-5; UO-31; RPMI-8226; 786-0; A498; HCT-116; SF-539; OVCAR-4; SW-620; SR; A549; SK-MEL-2; NCI-H460; COLO 205.
Experiment in all cases: NCI anticancer screen, dose series, 48 h

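A five-concentration, 48-hour dose response in 96-well plates underlies each endpoint, interpolated linearly between surrounding concentrations. Abbreviation: GI50, concentration required for 50% inhibition of growth.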 Activity calls are given as the source filed them. No stated cut-off is given here; in the data, active = GI50 up to about 1.1 µM and inactive = higher.

As to `COC(=O)C(Cc1ccc2c(c1)CCC2)Cc1ccc2c(c1)CCC2`, the GI50 is 89.7 µM with HCT-15; 73.3 µM (inactive) in the assay with PC-3; 80 µM (inactive) in the assay on M14; 51.9 µM (inactive) in the assay with U-251; > 100 µM (inactive) in the assay on OVCAR-5; 71.3 µM (inactive) in the assay on SNB-75. For the same compound, the GI50 is 25.9 µM (inactive) in the assay with SK-MEL-5; 53.3 µM (inactive) in the assay on UO-31; 26.1 µM (inactive) in the assay with RPMI-8226; 78.2 µM (inactive) in the assay with 786-0; 38.1 µM (inactive) with A498; 66.2 µM (inactive) in the assay with HCT-116. Besides, the GI50 in the assay with SF-539 is > 100 µM (inactive); in the assay with OVCAR-4 it was > 100 µM (inactive); in the assay with SW-620 it was > 100 µM (inactive); with SR, 57 µM (inactive); with A549, 41.3 µM (inactive); in the assay on SK-MEL-2, 18.4 µM (inactive). The GI50 in the assay with NCI-H460 is 53.2 µM (inactive); with COLO 205 it was 92.7 µM (inactive).
On to `COC(=O)[C@@H]1N2C(=S)N(c3ccccc3)C(=O)[C@H]2SC1(C)C`, for which the GI50 in the assay on HCT-15 was greater than 100 µM; in the assay with PC-3, > 100 µM (inactive); with M14 it was > 100 µM (inactive); with U-251, > 100 µM (inactive); with OVCAR-5 it was > 100 µM (inactive); with SNB-75, > 100 µM (inactive). Besides, the GI50 in the assay on SK-MEL-5 is > 100 µM (inactive); in the assay on UO-31, > 100 µM (inactive); in the assay with RPMI-8226, > 100 µM (inactive); in the assay on 786-0, > 100 µM (inactive); in the assay with A498, 91.4 µM (inactive); in the assay with HCT-116, > 100 µM (inactive). Besides, the GI50 in the assay on SF-539 is > 100 µM (inactive); with OVCAR-4 it was > 100 µM (inactive); with SW-620, > 100 µM (inactive); in the assay on SR it was 65.6 µM (inactive); in the assay on A549 it was > 100 µM (inactive); in the assay with SK-MEL-2, > 100 µM (inactive). For the same compound, the GI50 in the assay on NCI-H460 and in the assay on COLO 205 was > 100 µM (inactive) throughout.
With `O=C1O/C(=C\c2ccc(O)c(Br)c2)C(c2ccc(O)cc2)=C1Cl`, the GI50 was 36.6 µM in the assay with HCT-15; 51.1 µM (inactive) in the assay on PC-3; 36.1 µM (inactive) in the assay on M14; 44.8 µM (inactive) in the assay on U-251; 51.3 µM (inactive) in the assay with OVCAR-5; 53.3 µM (inactive) in the assay with SNB-75. In addition, the GI50 in the assay with SK-MEL-5 was 22.4 µM (inactive); in the assay on UO-31, 48.2 µM (inactive); in the assay on RPMI-8226, 10.1 µM (inactive); in the assay on 786-0, 42 µM (inactive); in the assay with A498 it was 25.3 µM (inactive); with HCT-116 it was 34.1 µM (inactive). Further, the GI50 in the assay with SF-539 is 40.6 µM (inactive); with OVCAR-4, 40 µM (inactive); in the assay on SW-620, 38.2 µM (inactive); with SR, 35.1 µM (inactive); with A549, 36.1 µM (inactive); in the assay on SK-MEL-2 it was 40.1 µM (inactive). Besides, the GI50 in the assay with NCI-H460 was 26.6 µM (inactive); in the assay on COLO 205, 47.5 µM (inactive).
Take `CCOC(=O)c1cc2c([nH]1)c(OC(C)=O)cc1c2ccn1Cc1ccccc1`: the GI50 is greater than 100 µM with HCT-15; > 100 µM (inactive) in the assay with PC-3; > 100 µM (inactive) in the assay with M14; > 100 µM (inactive) in the assay on U-251; > 100 µM (inactive) in the assay with OVCAR-5; > 100 µM (inactive) in the assay with SNB-75. Moreover, the GI50 in the assay with SK-MEL-5, with UO-31, in the assay on RPMI-8226, in the assay with 786-0, in the assay with A498 and with HCT-116 was > 100 µM (inactive) each time. Moreover, the GI50 with SF-539, in the assay with OVCAR-4, in the assay with SW-620, with SR, with A549 and in the assay with SK-MEL-2 was > 100 µM (inactive) throughout. Moreover, the GI50 in the assay on NCI-H460 and with COLO 205 was > 100 µM (inactive) each time.
In the case of `Cn1cc2c3ccccc3nc-2c2ccccc21` [ISOCRYPTOLEPINE], the GI50 is 1.97 µM in the assay with HCT-15; 2.52 µM (inactive) with PC-3; 1.63 µM (inactive) with M14; 2.42 µM (inactive) in the assay on U-251; 2.14 µM (inactive) with OVCAR-5; 1.8 µM (inactive) in the assay with SNB-75. Further, the GI50 in the assay on SK-MEL-5 was 1.7 µM (inactive); in the assay on UO-31, 1.4 µM (inactive); with RPMI-8226, 1.53 µM (inactive); in the assay with 786-0, 2.1 µM (inactive); in the assay with A498 it was 1.74 µM (inactive); in the assay with HCT-116 it was 1 µM (active). Also, the GI50 is 1.72 µM (inactive) with SF-539; 1.92 µM (inactive) in the assay on OVCAR-4; 1.12 µM (inactive) with SW-620; 0.397 µM (active) in the assay with SR; 2.17 µM (inactive) with A549; 1.91 µM (inactive) with SK-MEL-2. In addition, the GI50 in the assay with NCI-H460 was 1.44 µM (inactive); with COLO 205 it was 1.46 µM (inactive).
As for `COc1ccccc1NC(=O)CC(=O)n1nc(C)c(/N=N/c2ccccc2Cl)c1C`, the GI50 was greater than 100 µM with HCT-15; > 100 µM (inactive) in the assay on PC-3; > 100 µM (inactive) in the assay with M14; 27.8 µM (inactive) in the assay with U-251; > 100 µM (inactive) in the assay with OVCAR-5; 25.5 µM (inactive) in the assay with SNB-75. In addition, the GI50 in the assay on SK-MEL-5, in the assay with UO-31, in the assay on RPMI-8226, in the assay with 786-0, with A498 and with HCT-116 was > 100 µM (inactive) throughout. The GI50 was 56.1 µM (inactive) in the assay with SF-539; > 100 µM (inactive) in the assay on OVCAR-4; > 100 µM (inactive) in the assay with SW-620; > 72.4 µM (inactive) in the assay on SR; > 100 µM (inactive) in the assay with A549; > 100 µM (inactive) with SK-MEL-2. Further, the GI50 in the assay on NCI-H460 and with COLO 205 was > 100 µM (inactive) each time.
For `CCCCCCCCCCCCCCCCCCN(C)C(COC)COP(=O)([O-])OCC[N+](C)(C)C` (stereo not given), the GI50 with PC-3 was 1.53 µM (inactive); in the assay on M14, 3.46 µM (inactive); with U-251, 1.97 µM (inactive); in the assay on OVCAR-5 it was 2.34 µM (inactive); in the assay on SNB-75, 2.97 µM (inactive); in the assay with SK-MEL-5, 12.9 µM (inactive). In addition, the GI50 in the assay on UO-31 is 16 µM (inactive); with RPMI-8226, 1.83 µM (inactive); in the assay on 786-0 it was 1.74 µM (inactive); in the assay with A498, 7.38 µM (inactive); in the assay with HCT-116 it was 4.68 µM (inactive); with SF-539, 7.01 µM (inactive). The GI50 with OVCAR-4 was 3.69 µM (inactive); in the assay with SW-620, 6.47 µM (inactive); in the assay on SR, 2.23 µM (inactive); in the assay with A549, 6.68 µM (inactive); with SK-MEL-2, 18.7 µM (inactive); in the assay on NCI-H460, 1.78 µM (inactive). Also, the GI50 in the assay with COLO 205 was 1.58 µM (inactive).
`Cc1nnc([C@@]2(C)CC[C@H]3[C@@H](CCC4=CC(=O)CC[C@@]43C)[C@@H]2CC#N)o1`: the GI50 was greater than 100 µM with HCT-15; > 100 µM (inactive) in the assay with PC-3; > 100 µM (inactive) in the assay with M14; > 100 µM (inactive) with U-251; > 100 µM (inactive) in the assay on OVCAR-5; 41 µM (inactive) in the assay with SNB-75. Moreover, the GI50 in the assay with SK-MEL-5, in the assay with UO-31, in the assay with RPMI-8226, in the assay with 786-0, with A498 and with HCT-116 was > 100 µM (inactive) in each case. Besides, the GI50 in the assay with SF-539, in the assay with OVCAR-4, in the assay with SW-620, in the assay with SR, with A549 and in the assay on SK-MEL-2 was > 100 µM (inactive) throughout. Besides, the GI50 in the assay on COLO 205 was > 100 µM (inactive).
Consider `COC(=O)[C@@H](COC(=O)/C=C/c1ccc(OC(C)=O)c(OC(C)=O)c1)NC(=O)/C=C/c1ccc(OC(C)=O)c(OC(C)=O)c1`, for which the GI50 is 19.7 µM in the assay on HCT-15; 23.1 µM (inactive) with PC-3; 14.6 µM (inactive) in the assay with M14; 33.7 µM (inactive) in the assay on U-251; 45.8 µM (inactive) in the assay with OVCAR-5; 20.9 µM (inactive) in the assay on SNB-75. Besides, the GI50 with SK-MEL-5 is 13.4 µM (inactive); in the assay with RPMI-8226, 38.2 µM (inactive); in the assay on 786-0 it was 14.8 µM (inactive); in the assay on A498 it was 80.9 µM (inactive); in the assay on HCT-116, 16 µM (inactive); in the assay on SF-539 it was 19 µM (inactive). The GI50 in the assay with OVCAR-4 is 16.4 µM (inactive); in the assay on SW-620 it was 33.3 µM (inactive); in the assay with SR, 8.49 µM (inactive); with A549 it was 42.8 µM (inactive); with SK-MEL-2 it was 21.7 µM (inactive); with NCI-H460, 18.5 µM (inactive). In addition, the GI50 with COLO 205 is 15.7 µM (inactive).
On to `O=c1c(-c2c(-c3ccccc3)oc3ccc(Cl)cc3c2=O)c(-c2ccccc2)oc2ccc(Cl)cc12`, for which the GI50 was greater than 100 µM in the assay on HCT-15; > 100 µM (inactive) in the assay on PC-3; > 100 µM (inactive) with M14; > 100 µM (inactive) in the assay with U-251; > 100 µM (inactive) in the assay on OVCAR-5; > 44.1 µM (inactive) with SNB-75. Besides, the GI50 in the assay with SK-MEL-5 is > 100 µM (inactive); in the assay on RPMI-8226, > 100 µM (inactive); in the assay on 786-0, > 100 µM (inactive); in the assay with A498, > 100 µM (inactive); with HCT-116, > 78.3 µM (inactive); in the assay with SF-539, > 100 µM (inactive). For the same compound, the GI50 in the assay on OVCAR-4 was > 100 µM (inactive); in the assay with SW-620, > 100 µM (inactive); in the assay on SR, > 100 µM (inactive); in the assay on SK-MEL-2, > 100 µM (inactive); in the assay with NCI-H460, > 94.8 µM (inactive); in the assay on COLO 205, > 100 µM (inactive).

These data come from ChEMBL document CHEMBL1201862, “PubChem BioAssay data set” (2004).
